In patent US20220288197A1, “METHODS OF TREATING A SUBJECT WITH A CDC42-SPECIFIC INHIBITOR” (Children’s Hospital Medicai Center, priority 2019, published 2022):
“Also recorded” adds a separate entry of the source. Read-outs that look alike come from different tables or passages of the source.

Experiments:
[1] = test system: aging-associated inflammatory cytokines in serum; assay: Cytokine array (Luminex) of serum of aged mice; assay type: in vivo, C57BL/6 mice
Description: (§1) CASIN solution and IP treatment. CASIN was prepared fresh before injection by dissolving the drug directly in beta-cyclodextrin solution (Sigma #H5784). IP injections were performed in the morning, every 24 hours, for 4 consecutive days during week 75 of age of the mice. Control mice were injected with equal volume of the solvent. Serum for the cytokine array was prepared from the day 7 bleeding point. Serum for mass spectrometry analysis of CASIN levels was prepared by bleeding an equal (for sex, strain, origin and age) cohort of mice 3 hours, 24 hours, and 48 hours after the end of the treatment. The same stock of CASIN was used for the entire study. CASIN was provided as lyophilized powder.
Cytokine array. Lumimex Method. Cytokine concentrations in the sample supernatants were determined by using Milliplex™ Multiplex kits (MilliporeSigma, Darmstadt, Germany) according to manufacturer's protocol. Briefly, in a 96 well black plate, 25 μL sample in duplicate was incubated with 25 μL antibody coated beads overnight at 4° C. on a plate shaker. Plates were then washed 2 times using BioTek 405 TS (BioTek, Winooski, Vt.) and 25 μL of secondary antibody was added and incubated at room temperature for 1 hour while shaking. Finally, 25 μL of streptavidin-RPE was added directly to the secondary antibody and incubated for 30 minutes at room temperature with shaking. Plates were then washed 2 more times and 150 μL of sheath fluid was added. Plates were shaken for 5 minutes and then read using luminex technology on the Milliplex Analyzer (MilliporeSigma, Darmstadt, Germany). Concentrations were calculated from standard curves using recombinant proteins and expressed in pg/ml.
(§2) Cytokine array analyses were performed to investigate the extent to which aging-associated inflammatory cytokines in serum of aged mice were affected by CASIN treatment.

[2] = target: T1, Cdc42 (Mus musculus, UniProt P60766); assay: Cdc42-GTPase effector domain pull-down assay in bone marrow cells after systemic in vivo treatment; parameters: species or system C57BL/6 mice; details: FIG. 1c
T1 construct: lineage depleted BM cells (10^6) were lysed in a Mg^2+ lysis/wash buffer; from tissue; host or cells: lineage-depleted bone marrow cells of C57BL/6 mice treated in vivo with CASIN
T1 sequence (P60766 whole entry, the tested form may be a part): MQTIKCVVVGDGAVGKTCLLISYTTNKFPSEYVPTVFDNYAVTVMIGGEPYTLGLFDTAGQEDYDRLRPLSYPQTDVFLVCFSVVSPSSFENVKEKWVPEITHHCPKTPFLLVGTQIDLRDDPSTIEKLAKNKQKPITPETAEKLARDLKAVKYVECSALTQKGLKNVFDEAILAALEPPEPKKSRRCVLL
Description: Cdc42-GTPase effector domain pull-down assays. Relative levels of GTP-bound Cdc42 were determined by an effector pull-down assay. Briefly, lineage depleted BM cells (10^6) were lysed in a Mg^2+ lysis/wash buffer (Upstate cell signaling solutions) containing 10% glycerol, 25 mM sodium fluoride, 1 mM sodium orthovanadate and a protease inhibitor cocktail (Roche Diagnostics). Samples were incubated with PAK-1 binding domain/agarose beads and bound (activated) as well as unbound (non-activated) Cdc42 fractions were probed by immunoblotting with an anti-Cdc42 antibody (Millipore, rabbit polyclonal). Activated protein was normalized to total protein and/or 3-actin (Sigma) and the relative amount was quantified by densitometry.
(§3) Accordingly, chronic toxicity issues from the administration of inhibitor was unlikely. […] Furthermore, CASIN treatment reversed Cdc42 activity in the aged mice cohort to an approximate level of activity seen in the young mice control cohort. Thus, CASIN treatment generally reverted Cdc42 activity levels in aged mice to the level existing in mice approximately 60 weeks younger in age.

[3] = test system: inactivated influenza virus (H3N2); assay: Viral vaccination response, inactivated influenza virus, antibody titer by ELISA; assay type: in vivo, C57BL/6 mice; details: aged mice, 21 days after the second vaccination, immunized 12 weeks post CASIN treatment, FIG. 5(D)
Description: (§4) Briefly, 75 week-old C57BL/6 mice (referred to in the results as “Old”) and 12-16 week old mice (referred to in the results as “young”) were injected intraperitoneal (“IP”) every 24 hours for four days with a Cdc42-specific inhibitor (e.g., CASIN) at a dosage of interest (e.g., 25 mg/kg) or with solvent as a control group (referred to in the results as “Solvent”). On the fifth day, mice were treated with 5-fluorouracil (“5-FU”). Two methods of vaccination were investigated.
For viral vaccination, animals were immunized twice at an interval of 4 weeks with inactivated influenza virus (10 μg H3N2+10 μL Al(OH)3) i.m. 12 weeks post CASIN treatment. The antibody titer was determined in serum 21 days after the second vaccination using ELISA technology. n=at least 3 per experiment.

[4] = test system: hepatitis B virus (HBV) core antigen; assay: DNA vaccination response with pCI/C DNA encoding HBV core antigen; assay type: in vivo, C57BL/6 mice; details: aged mice, 13 days after immunization, OLD Solvent vs. OLD CASIN, p<0.05, FIG. 5(B)
Description: as §4
For DNA vaccination: 12 weeks after transplantation, recipient mice were immunized with pCI/C DNA encoding the hepatitis B virus (“HBV”) core antigen. FIG. 5(B) provides the results for DNA vaccination with the HBV core antigen 13 days after immunization along with an ovalbumin (“Ova”) specific immune response. The frequency of interferon gamma positive CD3^+CD8^+ T-cells was analyzed, which is an established surrogate measurement for the success of DNA vaccination protocols. […] In FIG. 5(C), splenic K^b/C93-100-dimer^+ CD8^+ T-cell frequencies were determined by flow cytometry 13 days post-immunization with the HBV core antigen. These T-cell frequencies are a direct measurement of antigen-specific T-cells.

[5] = LC-MS/MS measurement of CASIN pharmacokinetics in mouse serum; assay type: in vivo, C57BL/6 mice; details: for concentration at 3 h: female, C57BL/6, mouse, serum, intraperitoneal, 25 mg/kg
Description: as §1, with “Serum for mass spectrometry analysis of CASIN levels was prepared by bleeding an equal (for sex, strain, origin and age) cohort of mice 3 hours, 24 hours, and 48 hours after the end of the treatment.” left out
Liquid Chromatography-Mass Spectrometry (LC-MS/MS) measurements of CASIN pharmacokinetics in mouse serum. A LC/MS/MS ion chromatography protocol was employed to measure serum CASIN concentration ranging 0.1-10 μM by comparing serum CASIN from i.p. injected mice at varying times with a standard curve derived by in vitro spiking of mouse serum with defined doses of CASIN. An Autosampler maximum recovery vials with caps (Waters), an UPLC-MS system (Waters Quattro Premier XE mass spectrometry with ACQUITY UPLC system), an Acquity BEH C18 UPLC column (2.1×75 mm, 1.7 μm) (Waters), and an Acquity BEH C18 UPLC guard column (Waters) were used. For LC gradient, solvent A contained acetonitrile/water (5/95) with 2 mM ammonium acetate and solvent B contained acetonitrile/water (90/10). The gradient mobile phase switched from 60% solvent A to 57% solvent A over 2 min, to 50% solvent A at 2.1 min, to 46% solvent A over 9.9 min, and then, after changing to 30% at 12.1 min, to 1% solvent A over 5.9 min, then to 60% solvent A at 18.1 min and this was held for 2 min. Column temperature was kept at 25° C. The capillary voltage was 3 KV for electrospray negative (ES-) mode, cone voltage is 45 V, collision 30 V, desolvation temperature, 350° C.; desolvation gas flow is 600 L/h; source temperature was 120° C.; and MRM transition m/z is 305.1->244.
(§5) To determine that a short-term systemic treatment of aged animals with a Cdc42-specific inhibitor would regulate lifespan, CASIN was administered i.p. every 24 hours for 4 consecutive days to 75-week old female C57BL/6 mice (FIG. 1a). CASIN levels in serum were monitored via liquid chromatography-mass spectrometry (FIGS. 2a and 2b). A 50 mg/kg single dose resulted initially in a concentration of about 10 μM in serum (data not shown).

[6] = Toxicity, weight and peripheral blood counts in the lifespan study; assay type: in vivo
Description: (§6) Mice. Mice included in the study were female C57BL/6 and were obtained from the internal divisional stock (derived from C57BL/6j mice obtained from both The Jackson Laboratory and NIA/Charles River as well as from C57BL/6JRj mice from Janvier). For the longevity study described herein, 40 mice were randomly selected at 70 weeks of age. Mice were weighed and bled before the beginning of the treatment (day 0) and at day 7 and 35. […] Mice that needed to be euthanized because they were scored as “weak and about to die” according to our approved animal license protocol for evaluating mouse health status remained part of the dataset. Allocation to control or treated group was done randomly (20 mice each experimental group).
Flow cytometry of Peripheral Blood (PB). PB cell immunostaining was performed according to standard procedures and samples were analyzed on a LSRII flow cytometer (BD Biosciences). For PB lineage analysis, the antibodies used were from eBioscience: anti-CD3ε (clone 145-2C11), anti-B220 (clone RA3-6B2), anti-Mac-1 (clone M1/70) and anti-Gr-1 (clone […]). Lineage FACS analysis data were plotted as the percentage of B220+, CD3+ and Myeloid (Gr-1+, Mac-1+ and Gr-1+Mac-1+) cells among total white blood cells. WBC (white blood cell), RBC (red blood cell), Ly (lymphocytes), NE (neutrophils), and Mo (monocyte) counts were generated by using the hemocytometer Hemavet 950, DREW SCIENTIFIC Inc, (FL 33014), USA.
as §3, §2

[7] = test system: 75-week old female C57BL/6 mice; assay: Lifespan (longevity) study of aged mice, 4-day i.p. treatment; assay type: in vivo
Description: as §6
Median lifespan, 95% confidence intervals and survival analysis were calculated by Prism GraphPad v7.0c. Of note, the median lifespan of the control group matched data obtained for C57BL/6j mice in a large set of lifespan studies of diverse inbred mouse strains. […]
as §5, with “A 50 mg/kg single dose resulted initially in a concentration of about 10 μM in serum (data not shown).” left out

OCCNC1CCCc2c1[nH]c1ccc(-c3ccccc3)cc21 (stereo not shown) [CASIN]
GM-CSF concentration in serum ([1]; day 7, FIG. 3): trend to be reduced | IL-2 concentration in serum ([1]; day 7, FIG. 3): trend to be reduced | IL-9 serum concentration ([1]; day 7, FIG. 1h): increased in serum concentration | Cdc42-GTP in aged bone marrow cells ([2]; 24 hours after the last injection, aged mice): reduction of Cdc42-GTP in aged bone marrow cells to the level seen in young | decrease of Cdc42 activity ([2]; with no regard to the age of mouse): approximately half | antibody titer in serum [3]: increase in antibody titer; also recorded: approximately equal to that seen in young mice | frequency of interferon gamma positive CD3+CD8+ T-cells [4]: statistically significant increase in immune response | CASIN remaining in serum at the end of the 48 hour window ([5]; 25 mg/kg i.p. for 4 consecutive days, 48 hours): approximately no CASIN remaining in serum | CASIN concentration in serum ([5]; 50 mg/kg single dose, initially (data not shown)): about 10 μM | concentration at 3 h ([5]; 25 mg/kg i.p. for 4 consecutive days, 48 hour window of analysis, 3 hours, read-out: concentration of CASIN in serum after 3 hours): ~2 µM | concentration at 3 h ([5]; 25 mg/kg i.p., old mice, 3 hours after injection, FIG. 2b, read-out: levels of CASIN in serum 3 hours after injection): ~5 µM | red blood cell count (RBC) ([6]; day 7 and day 35, FIG. 2e): did not change | white blood cell count (WBC) ([6]; day 7 and day 35, FIG. 2d): did not change | frequency and count of myeloid and lymphoid cells in peripheral blood (PB) ([6]; day 7 and day 35, FIGS. 2f-k): did not change | weight ([6]; day 7 and day 35 after beginning of treatment, FIG. 2c): did not change | acute toxicity ([6]; four days of consecutive i.p. injections, 25 mg/kg, aged mice): did not induce acute toxicity | deaths of treated mice after CASIN injections ([6]; within 4 weeks after injections): none of the treated mice died | Median survival ([7]; aged mice treated at week 75, 25 mg/kg i.p. 4 consecutive days, n=17, control 123.5 weeks): 136 weeks | average and maximum lifespan ([7]; aged mice treated for 4 consecutive days, FIG. 1d): extension of both their average and maximum lifespan
